Reference: article PMC10821196, “Analysis of Marrubiin in Marrubium alysson L. Extract Using Advanced HPTLC: Chemical Profiling, Acetylcholinesterase Inhibitory Activity, and Molecular Docking” (Metabolites, 2023)

Target: T1, acetylcholinesterase (AChE) (Electrophorus electricus, UniProt O42275)
T1 construct: commercial native enzyme from electric eel (Sigma-Aldrich)
Assay: Ellman assay, […] nm
Assay type: biochemical

T1 sequence (O42275 24-633): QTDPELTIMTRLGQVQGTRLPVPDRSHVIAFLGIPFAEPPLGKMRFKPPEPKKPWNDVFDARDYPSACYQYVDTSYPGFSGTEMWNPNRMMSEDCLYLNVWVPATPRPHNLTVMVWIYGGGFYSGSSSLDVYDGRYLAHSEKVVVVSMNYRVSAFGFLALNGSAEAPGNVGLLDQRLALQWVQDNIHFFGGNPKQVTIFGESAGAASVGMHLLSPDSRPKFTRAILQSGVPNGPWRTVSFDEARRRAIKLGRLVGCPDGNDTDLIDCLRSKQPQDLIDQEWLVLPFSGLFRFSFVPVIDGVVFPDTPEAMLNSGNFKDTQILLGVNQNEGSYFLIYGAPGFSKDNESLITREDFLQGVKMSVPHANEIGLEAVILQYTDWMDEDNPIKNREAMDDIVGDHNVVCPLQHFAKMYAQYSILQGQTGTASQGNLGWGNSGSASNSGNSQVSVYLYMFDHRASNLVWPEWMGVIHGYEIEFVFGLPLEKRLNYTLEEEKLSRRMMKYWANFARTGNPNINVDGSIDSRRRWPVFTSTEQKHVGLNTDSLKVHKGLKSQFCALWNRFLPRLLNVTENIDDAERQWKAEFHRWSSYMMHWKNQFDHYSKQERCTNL

`C[C@@H]1C[C@H]2OC(=O)[C@@]3(C)CCC[C@@](C)([C@@H]23)[C@@]1(O)CCc1ccoc1` [marrubiin] was tested, and the IC50 was 52.7 ± 5.66 µM.
